The source of these data is patent US10040838B2, “CRHR2 peptide agonists and uses thereof” (JANSSEN PHARMACEUTICA NV, priority 2008, dated 2018).

No end group written: not given here.

One assay concerns the target T1, human CRHR2 (Homo sapiens, UniProt Q13324).
T1 construct: expressed in transfected cells
T1 sequence (Q13324 1-411): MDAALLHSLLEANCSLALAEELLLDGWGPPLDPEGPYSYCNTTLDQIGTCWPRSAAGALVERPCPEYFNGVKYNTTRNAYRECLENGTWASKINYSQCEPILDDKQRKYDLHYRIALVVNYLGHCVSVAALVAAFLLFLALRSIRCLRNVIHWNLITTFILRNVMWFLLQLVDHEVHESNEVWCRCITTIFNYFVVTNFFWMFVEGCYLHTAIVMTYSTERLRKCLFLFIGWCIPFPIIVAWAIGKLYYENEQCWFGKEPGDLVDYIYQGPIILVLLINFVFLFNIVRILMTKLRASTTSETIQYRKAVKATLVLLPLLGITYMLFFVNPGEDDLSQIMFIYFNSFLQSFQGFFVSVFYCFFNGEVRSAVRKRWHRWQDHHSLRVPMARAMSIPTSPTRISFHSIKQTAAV
Description: cAMP assay in h-CRHR2 transfected SK-N-MC cells. The class given is cell-based. Conditions: Table 12; Hill slope. Put shortly: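 Intracellular cAMP was read by competition with [125I]-cAMP for an anti-cAMP antibody after HCl lysis of human CRHR2-transfected SK-N-MC cells. Cells had been exposed to peptide, 1 pM to 10 μM, for 60 min at 37 °C in IBMX (10 μM) buffer. A50 and pA50 came from Hill fits; Log DR was computed against h-SCP within each batch.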
Substance “TKFTLSLDVPTNIMNLLFNIAKAKNLRAQAAANAHLMAQI-OH [SEQ ID NO: 113, TKFTLSLDVPTNIMNLLFNIAKAKNLRAQAAANAHLMAQI, reference compound]” displayed a nH of 1.07.

The assay is the same for the next values; noted with them: Table 13; h-SCP control pA50 minus test compound pA50 within same assay batch.
Take “TKFTLSLDVPTNIMNLLFNIAKACNLRAQAAANAHLMAQI-NH2 [SEQ ID NO: 25, TKFTLSLDVPTNIMNLLFNIAKACNLRAQAAANAHLMAQI-NH2]”: the “Log DR” value is 0.35.

Take “TKFTLSLDVPTNIMNLLFNIAKAKCLRAQAAANAHLMAQI-NH2 [SEQ ID NO: 26, TKFTLSLDVPTNIMNLLFNIAKAKCLRAQAAANAHLMAQI-NH2]”: the “Log DR” value came out at 0.08. Still for that read-out and setting: with “TKFTLSLDVPTNIMNLLFNIAKAKNCRAQAAANAHLMAQI-NH2 [SEQ ID NO: 27, TKFTLSLDVPTNIMNLLFNIAKAKNCRAQAAANAHLMAQI-NH2]” the figure was 0.76; with “TKFTLSLDVPTNIMNLLFNIAKAKNLCAQAAANAHLMAQI-NH2 [SEQ ID NO: 28, TKFTLSLDVPTNIMNLLFNIAKAKNLCAQAAANAHLMAQI-NH2]”, 0.16.

In the case of “TKFTLSLDVPTNIMNLLFNIAKAKNLRACAAANAHLMAQI-NH2 [SEQ ID NO: 30, TKFTLSLDVPTNIMNLLFNIAKAKNLRACAAANAHLMAQI-NH2]”, the “Log DR” value is given as 1.28. Same read-out and setting: with “TKFTLSLDVPTNIMNLLFNIAKAKNLRAQAAACAHLMAQI-NH2 [SEQ ID NO: 34, TKFTLSLDVPTNIMNLLFNIAKAKNLRAQAAACAHLMAQI-NH2]” the figure was greater than 3.19; with “TKFTLSLDVPTNIMNLLFNIAKAKNLRAQAAANACLMAQI-NH2 [SEQ ID NO: 36, TKFTLSLDVPTNIMNLLFNIAKAKNLRAQAAANACLMAQI-NH2]”, 0.42.

“TKFTLSLDVPTNIMNLLFNIAKAKNLRAQAAANAHCMAQI-NH2 [SEQ ID NO: 37, TKFTLSLDVPTNIMNLLFNIAKAKNLRAQAAANAHCMAQI-NH2]”: the “Log DR” value is listed as 1.05. Regarding “TKFTLSLDVPTNIMNLLFNIAKAKNLRAQAAANAHLCAQI-NH2 [SEQ ID NO: 38, TKFTLSLDVPTNIMNLLFNIAKAKNLRAQAAANAHLCAQI-NH2]”, the “Log DR” value is listed as greater than 2.95. The same measure, in the same setting: with “TKFTLSLDVPTNIMNLLFNIAKAKNLRAQAAANAHLMACI-NH2 [SEQ ID NO: 40, TKFTLSLDVPTNIMNLLFNIAKAKNLRAQAAANAHLMACI-NH2]” the figure was 0.55; with “TKFTLSLDVPTNIMNLLFNIAKAKNLRAQAAANAHLMAQC-NH2 [SEQ ID NO: 41, TKFTLSLDVPTNIMNLLFNIAKAKNLRAQAAANAHLMAQC-NH2]”, 2.07.

For the substance “TKFTLSLDVPTNIMNLLFNIAKAKNLRAQAAANAHLMCQI-NH2 [SEQ ID NO: 39, TKFTLSLDVPTNIMNLLFNIAKAKNLRAQAAANAHLMCQI-NH2]”, the “Log DR” value stood at 0.41.

With “TKFTLSLDVPTNIMNLLFNIAKAKNLRAQAAANCHLMAQI-NH2 [SEQ ID NO: 35, TKFTLSLDVPTNIMNLLFNIAKAKNLRAQAAANCHLMAQI-NH2]”, the “Log DR” value was 0.70. On the same count and under the same terms, as for “TKFTLSLDVPTNIMNLLFNIAKAKNLRAQAACNAHLMAQI-NH2 [SEQ ID NO: 33, TKFTLSLDVPTNIMNLLFNIAKAKNLRAQAACNAHLMAQI-NH2]”, the figure is 0.45; as for “TKFTLSLDVPTNIMNLLFNIAKAKNLRAQACANAHLMAQI-NH2 [SEQ ID NO: 32, TKFTLSLDVPTNIMNLLFNIAKAKNLRAQACANAHLMAQI-NH2]”, 0.11; as for “TKFTLSLDVPTNIMNLLFNIAKAKNLRAQCAANAHLMAQI-NH2 [SEQ ID NO: 31, TKFTLSLDVPTNIMNLLFNIAKAKNLRAQCAANAHLMAQI-NH2]”, 1.61. The same measure, in the same setting: with “TKFTLSLDVPTNIMNLLFNIAKAKNLRCQAAANAHLMAQI-NH2 [SEQ ID NO: 29, TKFTLSLDVPTNIMNLLFNIAKAKNLRCQAAANAHLMAQI-NH2]” the figure was 0.00; with “TKFTLSLDVPTNIMNLLFNIAKCKNLRAQAAANAHLMAQI-NH2 [SEQ ID NO: 24, TKFTLSLDVPTNIMNLLFNIAKCKNLRAQAAANAHLMAQI-NH2]”, 0.74.

The assay is the same for the next values; noted with them: versus h-SCP (SEQ ID NO:1).
In the case of “TKFTLSLDVPTNIMNLLFNIAKAKNLRAQAAANAHLMAQI-OH [SEQ ID NO: 113, TKFTLSLDVPTNIMNLLFNIAKAKNLRAQAAANAHLMAQI, reference compound]”, the “fold less potent than the amidated parent peptide” value is listed as “approximately 200 fold”.
